Measurements: US9738668B2

How the values were obtained:
brain mitochondria = assay: Mitochondria swelling assay in response to Ca2+; parameters: species or system mice
Method: Brain from mice without white matter was used for mitochondrial isolation. Brain was homogenized in 9 ml of ice-cold EB buffer (1 mmol EDTA, 1-6 mg/ml BSA) using a Dounce homogenizer until no particles could be seen. Homogenates were centrifuged at 1300×g for 5 minutes. Supernatant from this fraction was carefully laid on top of a 15% PERCOLL solution (10 ml) and then centrifuged at 16000 RPM for 10 minutes. The pellet was carefully mixed with 9 ml of mitochondrial buffer (4.098% D-mannitol, 2.56% sucrose, 0.034% K2HPO4, pH 7.3-7.4) and 200 μl of 1% digitonin. After 5 minutes incubation on ice, the mixture was centrifuged at 8000 RPM for 10 minutes. Mitochondrial pellet was washed once with mitochondrial buffer. Subsequently, the mitochondrial pellet was resuspended in 100 μl of mitochondrial buffer and was used for further experiments.
A proper amount of mitochondria was resuspended into 1 ml swelling assay buffer (150 mM KCl, 2 mM KH2PO4, 10 mM HEPES, pH 7.4) and energized by 1 mM glutamate and 1 mM malate. Calcium at varying concentrations was added into the assay buffer to trigger mitochondrial swelling. Mitochondrial permeability transition was determined by studying the rate of change in absorbance at 540 nm via a spectrophotometer.
Given that the Compounds 4, 8 and 15 could inhibit ABAD activity, it was determined whether these same compounds could decrease mitochondrial permeability transition pore (mPTP) formation.

[1] = Solubility in solvents during LC method development; assay type: physicochemical
Method: During the development of a detection method for analytes 4, 8 and 15, multiple solvents were tested to find the optimal mobile phase. […] Acetonitrile was selected for better peak shape and compatibility with serum/brain protein precipitation. Compounds 8 and 15 were chosen as IS, because of their structural similarity. Selected reaction monitoring (SRM) acquisitions were used for sensitivity and extended dynamic range. The cone voltage and collision energy were optimized for 4, 8 and 15 and the IS by continuously infusing a mixture of the two. The optimum cone voltage was 30V.

ABAD = assay type: biochemical
Method: Before the assay, all the assay components except SAAC were pre-incubated for 5 minutes, and the reaction started with the addition of SAAC into the reaction mix. The reaction was carried out for a total 6 minutes at room temperature under steady-state conditions, and the decrease of NADH absorbance at 340 nm was determined every 10 seconds. Kinetic data were analyzed by PRISM (Scitech, San Diego, Calif.) to determine IC50 values and Ki. One unit of enzyme activity was defined as that which converted 1.0 μmol of substrate to product per minute.

SK-N-SH cells [2] = assay: Mitochondrial cytochrome c oxidase (CcO) activity in Aβ-treated cells; assay type: cell-based
Method: SK-NSH cells were treated with 5 μM oligomer Aβ plus 1 μM of ABAD inhibitor; inhibitor alone; vehicle (VEH) without inhibitor; or Aβ alone. Forty-eight hour later, CcO activity (μmol protein mg^−1 min^−1) was measured in cell lysates.
The CcO activity was measured according to known methods (Du, et al. (2008) Nat. Med. 14:1097-105) with a cytochrome c oxidase kit (Sigma). In brief, SK-N-SH cells were incubated with ABAD inhibitor and oligomer Aβ for 48 hours. After washing the cells twice with PBS, the cells were collected and concentration was determined by the Bradford method. A suitable volume of cells and enzyme solution was added to 475 μl assay buffer. The reaction was triggered by the addition of 25 μl freshly prepared ferrocytochrome C substrate solution into the cuvette. Changes in OD550 nm were recorded immediately with an Amersham Biosciences ULTROSPECT 3100 pro spectrophotometer.
To assess the effect of ABAD inhibitor on Aft-induced mitochondrial respiratory function, CcO activity was determined.

SK-N-SH cells [3] = assay: ATP levels in Aβ-treated cells; assay type: cell-based
Method: Forty-eight hour later, ATP levels (μmol mg^−1 protein) were measured in cell lysates.
To determine the effect of ABAD inhibitors on Aβ-induced impairment in energy metabolism, ATP levels were measured. […] ATP levels were measured in the cell lysates. […] Therefore, ABAD inhibitors can block mitochondrial dysfunction mediated by Aβ.

[4] = Pharmacokinetic study and BBB penetration, LC-MS/MS of plasma and brain; assay type: in vivo, C57BL6 mice; conditions: mice, intravenous 10 mg/kg
Method: Using the validated LCMS/MS method, blood and brain levels of 4, 8, and 15 were measured in male and female C57BL6 mice (8-10 week-old, weighing approximately 25-30 grams). The mice were housed in a room with controlled temperature (23±3° C.) and moisture level (55±15% relative humidity) and exposed to a controlled 12 hour light/12 hour dark cycle. They were allowed to access to food and water ad libitum. Mice were fasted for 6 hours with free access to water prior to the pharmacokinetic study. To determine the time course of compounds 4, 8, and 15 action in the brain, the plasma pharmacokinetics and BBB penetration capability of the inhibitors were investigated. In these experiments, compounds 4, 8, and 15 were administered to mice by intravenous injection at a dosage of 10 mg/kg. Blood and brain samples were collected from mouse at each time point (2, 5, 10, 30, 60, 120, 240, 360, 720, 1440, and 2880 minutes), a total of 11 time points. For plasma measurements, blood (approximately 500-800 μl) was collected via cardiac-puncture into tubes containing sodium heparin anti-coagulant. Plasma was separated via centrifugation (4° C., 3500 rpm, 10 minutes) and stored in −80° C. freezer. For qualitative confirmations of these compounds in CSF, samples were collected at 2 time points (240 and 1440 min) from five animals at each time point. At the time of measurement, frozen plasma samples were thawed at room temperature and vortexed thoroughly. The following quantities were estimated using non-compartmental calculations performed with WINNONLIN 5.2 (Pharsight, Sunnyvale, Calif.): the area under the plasma concentration-time curve during the period of observation (AUC0-τ); the area under the plasma concentration-time curve from zero to infinity (AUC0-∞); the maximum plasma concentration (Cmax); the time to reach Cmax (Tmax); and the half-life (t1/2).
The LC-MS/MS method described above was used for the determination of 4, 8 and 15 in plasma, brain, and CSF for pharmacokinetic study. Based on the initial concentration data, the pharmacokinetic parameters including the area under the plasma concentration-time curve during the period of observation (AUC0-t), the area under the plasma concentration-time curve from zero to infinity (AUC0-∞) the maximum plasma concentration (Cmax) the time to reach Cmax (Tmax) and the half-life (t1/2) are shown in Table 8.

[5] = cited from earlier work
Aβ-ABAD interaction = conditions: cited from earlier work

COc1ccc2nc(N[C@@H](c3ccc(F)cc3)P(=O)(OC)OC)sc2c1 [Compound 15, Dimethyl ((4-fluorophenyl) ((6-methoxybenzo[d]thiazol-2-yl)amino)methyl) phosphonate]
calcium-mediated mitochondrial swelling (brain mitochondria; with calcium): antagonized calcium-mediated mitochondrial swelling
mitochondrial swelling without calcium (brain mitochondria; without calcium): did not affect mitochondrial swelling
solubility in methanol or acetonitrile ([1]; methanol or acetonitrile): dissolved readily
solubility in water ([1]; water): dissolved partially
inhibition of SAAC reduction by ABAD (ABAD; at 10 μM): did not inhibit
inhibitory effect on SAAC reduction by ABAD (ABAD; at 100 or 400 μM): slight inhibitory effect
CcO activity, inhibitor alone (SK-N-SH cells [2]; 1 μM inhibitor without Aβ): had no effect on CcO activity
CcO activity (SK-N-SH cells [2]; 5 μM oligomer Aβ1-42 plus 1 μM inhibitor, 48 hours): reversed the Aβ-mediated decrease of CcO activity
ATP levels (SK-N-SH cells [3]; 5 μM Aβ1-42 plus 1 μM inhibitor): rescued ATP levels
ATP levels, inhibitor alone (SK-N-SH cells [3]; inhibitor without Aβ): comparable to cells treated with vehicle alone
t1/2 ([4]; Brain): 11.4 h
t1/2 ([4]; Plasma): 6.1 h

Nc1c(/N=N/c2ccc(-c3ccc(/N=N/c4cc(S(=O)(=O)O)c5ccccc5c4N)cc3)cc2)cc(S(=O)(=O)O)c2ccccc12 [Congo red]
cell permeability [5]: poor cell permeability
inhibition of Aβ binding (Aβ-ABAD interaction): 100%

fentizole
inhibitory activity (Aβ-ABAD interaction): exhibit inhibitory activity

thioflavin T
inhibition of Aβ binding (Aβ-ABAD interaction): ~20%
